Measured values reported in article PMC11087051, “Large-scale deorphanization of Nematostella vectensis neuropeptide G protein-coupled receptors supports the independent expansion of bilaterian and cnidarian peptidergic systems” (eLife, 2024).
Residues, ends and D or L forms follow the SMILES beside them. No end group written: not given here.

Assay: Maximal solubility of the synthetic peptides in water and in DMSO (sheet Peptide_mixes)
Type: physicochemical
Details: for max solve (DMSO): in DMSO, number in brackets in the cell; for max solve water: in water, number before the bracket in the cell
Source text: Supplement elife-90674-supp3.xlsx, sheet "Peptide_mixes"

Molecule	max solve (DMSO)	max solve water
CSCC[C@H](NC(=O)[C@H](C)NC(=O)[C@@H]1CCC(=O)N1)C(=O)N[C@@H](CCC(N)=O)C(=O)N[C@@H](Cc1c[nH]c2ccccc12)C(=O)NCC(=O)N[C@@H](Cc1c[nH]cn1)C(=O)N[C@@H](CCCCN)C(=O)NCC(=O)N[C@@H](Cc1c[nH]c2ccccc12)C(=O)N[C@@H](C)C(=O)O [GWA1] (HELM PEPTIDE1{[Glp].A.M.Q.W.G.H.K.G.W.A}$$$$V2.0)	10 mg/mL	0 mg/mL
SPPQWKLDSSPPQW [QW3]	10 mg/mL	5 mg/mL
CC[C@H](C)[C@H](NC(=O)[C@H](Cc1c[nH]cn1)NC(=O)[C@H](Cc1ccccc1)NC(=O)[C@H](Cc1ccc(O)cc1)NC(=O)[C@H](C)NC(=O)[C@@H]1CCCN1C(=O)CNC(=O)[C@H](CC(C)C)NC(=O)[C@H](CC(=O)O)NC(=O)[C@H](CC(C)C)NC(=O)[C@@H]1CCCN1C(=O)[C@@H]1CCCN1C(=O)[C@@H]1CCC(=O)N1)C(=O)N[C@@H](CCCNC(=N)N)C(N)=O [HIRa4] (HELM PEPTIDE1{[Glp].P.P.L.D.L.G.P.A.Y.F.H.I.R.[am]}$$$$V2.0)	10 mg/mL	5 mg/mL
RSNRVVIHTGANPTMAPLRIPF-NH2 [IPFa]	10 mg/mL	5 mg/mL
GPPPIYLPVRP-NH2 [RHa3]	10 (10) mg/ml	10 (10) mg/ml
NPPQPPFRIPI-NH2 [IPIa]	10 mg/mL	5 mg/mL
IPPQGLRFNQW-NH2 [QWa2]	10 mg/mL	5 mg/mL
YPPLNTV-NH2 [NTVa]	10 mg/mL	5 mg/mL
GPRGGRATEFGPRG-NH2 [PRGa3]	10 (10) mg/ml	10 (10) mg/ml
CC(C)C[C@H](NC(=O)CNC(=O)[C@@H]1CCC(=O)N1)C(=O)N[C@@H](CCCNC(=N)N)C(=O)N[C@@H](Cc1c[nH]c2ccccc12)C(N)=O [LRWa1] (HELM PEPTIDE1{[Glp].G.L.R.W.[am]}$$$$V2.0)	5 mg/mL	0 mg/mL
N=C(N)NCCC[C@H](NC(=O)CNC(=O)[C@H](CCC(N)=O)NC(=O)[C@H](CC(=O)O)NC(=O)[C@H](CCC(=O)O)NC(=O)[C@H](CCCNC(=N)N)NC(=O)CNC(=O)[C@H](Cc1ccccc1)NC(=O)[C@H](CCCNC(=N)N)NC(=O)CNC(=O)[C@@H]1CCC(=O)N1)C(=O)N[C@@H](Cc1ccccc1)C(N)=O [RFa1] (HELM PEPTIDE1{[Glp].G.R.F.G.R.E.D.Q.G.R.F.[am]}$$$$V2.0)	10 mg/mL	5 mg/mL
CSCC[C@H](NC(=O)[C@H](CC(N)=O)NC(=O)[C@@H]1CCCN1C(=O)[C@H](CCSC)NC(=O)[C@@H]1CCC(=O)N1)C(=O)N[C@H](C(=O)N1CCC[C@H]1C(=O)N[C@@H](Cc1ccccc1)C(=O)N[C@@H](Cc1c[nH]cn1)C(N)=O)C(C)C [PFHa] (HELM PEPTIDE1{[Glp].M.P.N.M.V.P.F.H.[am]}$$$$V2.0)	10 mg/mL	0 mg/mL
APGLW-NH2 [GLWa4]	10 (10) mg/ml	10 (10) mg/ml
CC(C)[C@H](NC(=O)[C@H](CCCNC(=N)N)NC(=O)[C@H](Cc1ccc(O)cc1)NC(=O)[C@@H](N)Cc1ccccc1)C(N)=O [FYRVa] (H-FYRV-NH2)	10 mg/mL	2 mg/mL
GPRGGRSYDGPRG-NH2 [PRGa4]	10 mg/mL	5 mg/mL
CC(C)C[C@H](NC(=O)[C@@H](N)Cc1ccccc1)C(=O)N[C@@H](CCCNC(=N)N)C(=O)N[C@@H](CC(N)=O)C(N)=O [FLRNa] (H-FLRN-NH2)	10 (10) mg/ml	10 (10) mg/ml
EIQPGNMKVWSDPF [PNX14]	10 mg/mL	5 mg/mL
GPPQGLRW-NH2 [LRWa3]	5 (5) mg/ml	5 (5) mg/ml
WPPRP-NH2 [FRPa1]	10 (10) mg/ml	10 (10) mg/ml
QPGNMKVWSDPF [PNX12]	5 mg/mL	0 mg/mL
CC[C@H](C)[C@H](NC(=O)[C@H](CC(C)C)NC(=O)[C@@H]1CCC(=O)N1)C(=O)N[C@@H](Cc1ccccc1)C(=O)N[C@@H](CCCNC(=N)N)C(=O)N1CCC[C@H]1C(N)=O [FRPa] (HELM PEPTIDE1{[Glp].L.I.F.R.P.[am]}$$$$V2.0)	10 mg/mL	5 mg/mL
CC(C)C[C@@H]1NC(=O)CNC(=O)[C@@H]2CCCN2C(=O)[C@@H]2CCCN2C(=O)[C@@H](NC(=O)[C@@H]2CCC(=O)N2)CSSC[C@@H](C(=O)O)NC(=O)CNC(=O)[C@H](Cc2c[nH]c3ccccc23)NC1=O [GLWGcc] (HELM PEPTIDE1{[Glp].C.P.P.G.L.W.G.C}$PEPTIDE1,PEPTIDE1,2:R3-9:R3$$$V2.0)	10 mg/mL	2 mg/mL
CC(C)C[C@H](NC(=O)CNC(=O)CNC(=O)[C@@H]1CCC(=O)N1)C(=O)N[C@@H](CCCNC(=N)N)C(=O)N[C@@H](Cc1c[nH]c2ccccc12)C(N)=O [LRWa2] (HELM PEPTIDE1{[Glp].G.G.L.R.W.[am]}$$$$V2.0)	10 mg/mL	5 mg/mL
NPPIDLGPAYFHIR-NH2 [HIRa5]	10 mg/mL	5 mg/mL
YPPFLELGQPSYFHIR-NH2 [HIRa2]	10 mg/mL	5 mg/mL
SPWSCSLRP-NH2 [LRPa1]	10 (10) mg/ml	10 (10) mg/ml
CC(C)C[C@H](NC(=O)[C@H](CCCNC(=N)N)NC(=O)[C@@H](NC(=O)[C@H](CC(N)=O)NC(=O)[C@H](C)NC(=O)[C@H](CCCCN)NC(=O)[C@H](CS)NC(=O)[C@H](CC(C)C)NC(=O)[C@H](Cc1c[nH]c2ccccc12)NC(=O)[C@H](CC(C)C)NC(=O)CNC(=O)[C@@H]1CCCN1C(=O)[C@@H]1CCCN1C(=O)[C@H](CS)NC(=O)[C@H](Cc1c[nH]cn1)NC(=O)CNC(=O)[C@H](CC(N)=O)NC(=O)[C@@H]1CCC(=O)N1)[C@@H](C)O)C(=O)O [GLWL] (HELM PEPTIDE1{[Glp].N.G.H.C.P.P.G.L.W.L.C.K.A.N.T.R.L}$$$$V2.0)	10 mg/mL	5 mg/mL
GPRGGREVNLEGPRG-NH2 [PRGa2]	5 (5) mg/ml	5 (5) mg/ml
TPPQW [QW1]	10 mg/mL	2 mg/mL
C[C@@H](O)[C@H](NC(=O)[C@H](Cc1c[nH]cn1)NC(=O)[C@H](Cc1ccccc1)NC(=O)[C@H](Cc1ccc(O)cc1)NC(=O)[C@@H]1CCCN1C(=O)[C@@H]1CCC(=O)N1)C(=O)N[C@@H](CC(=O)O)C(=O)N[C@@H](CC(N)=O)C(=O)N[C@@H](CO)C(=O)N1CCC[C@H]1C(=O)N[C@@H](CC(N)=O)C(=O)N[C@@H](CCCNC(=N)N)C(=O)N[C@@H](Cc1ccccc1)C(N)=O [NRFa] (HELM PEPTIDE1{[Glp].P.Y.F.H.T.D.N.S.P.N.R.F.[am]}$$$$V2.0)	5 (5) mg/ml	5 (5) mg/ml
